According to patent US5814600A, “Method and composition for treatment of insulin requiring mammals” (Amylin Pharmaceuticals Inc., priority 1994, dated 1998):
Entries after “also recorded” stand apart in the source; their conditions may differ. Where two headings read alike, the source gives them in different places.

Legend:
rat soleus muscle = format: cell-based
Method: Male Harlan Sprague Dawley rats of approximately 200 g mass were used in order to maintain soleus muscle mass less than 40 mg. The animals were fasted for 4 hours prior to sacrifice by decapitation. The skin was stripped from the lower limb which was then pinned out on cork board. The tendo achilles was cut just above os […]. gastrocnemius reflected out from the posterior aspect of the tibia. M. soleus, a small […], 0.55 mm thick flat muscle on the bone surface of m. gastrocnemius was then stripped clear and the perimysium cleaned off using fine scissors and forceps. M. soleus was then split into equal parts using a blade passed antero-posteriorly through the belly of the muscle to obtain a total of 4 muscle strips from each animal. After dissecting the muscle from the animal, it was kept for a short period in physiological saline. The muscle was not held under tension, as reported in other methodologies since in our hands this had no demonstrable effect on the insulin-sensitivity of radioglucose incorporation into glycogen. Muscles were added to 50 mL Erlenmeyer flasks containing 10 mL of a pregassed Krebs-Ringer bicarbonate buffer containing (mM) NaCl 118.5; KCl 5.94; CaCl2 2.54; MgSO4 1.19; KH2 PO4 1.19; NaHCO3 25; glucose 5.5; and recombinant human insulin (Humulin-R, Eli Lilly, Ind.) and either synthetic rat (Bachem, Torrance, Calif. Lot# ZG485) or synthetic human amylin (Bachem, Torrance, Calif. Lot# ZH144) as detailed below. Methods used to determine the nature and purity of rat and human amylin included quantitative amino acid analysis, gas phase amino acid sequencing, reverse phase HPLC and fast-atom-bombardment mass spectrometry. […] Incorporation of mercury into rat amylin may be a feature of many commercially available batches that have already been used in published studies. Since the peptide was bioactive, its action in muscle was expected to at least qualitatively mimic that of true rat amylin. The mercuric method of cyclization was not used in the synthesis of human amylin, which is found by electrospray ionization mass spectrometry and atomic absorption spectroscopy to be mercury-free. Muscles were assigned to different flasks so that the four muscle pieces from each animal were evenly distributed among the different assay conditions. The incubation media were gassed by gently blowing carbogen (95% O2, 5% CO2) over the surface while it was continuously agitated at 37° C. in an oscillating water bath. pH of gassed media at 37° C. was verified as being between 7.1 and 7.4. After a half-hour preincubation, 0.5 μCi of [U-^14 C]-glucose was added to each flask for a further 60 minutes. Each muscle piece was then rapidly removed, trimmed of tendons, blotted, frozen in liquid N2, weighed and then stored at […] for subsequent determination of ^14 C-glycogen. The incubation medium was also frozen for subsequent analysis. The concentration of human amylin present in the medium at the end of the incubation was determined by radioimmunoassay in surfactant-containing buffer. For both human and rat amylin, the actual mass added to the incubation medium was determined by quantitative amino-acid analysis. Each frozen muscle specimen was placed in a vial with 1 mL 60% potassium hydroxide (wt/vol) and digested at 70° C. for 45 minutes under intermittent vigorous agitation. Dissolved glycogen was precipitated onto the walls of the vial by addition of 3 mL absolute ethanol and overnight cooling at -20° C. After centrifugation for 30 minutes at 2000 x-- g, the supernatant was gently aspirated, the glycogen was again washed with ethanol and centrifuged, the ethanol aspirated and the precipitate dried under vacuum. It was important to evaporate all ethanol to avoid quenching during scintillation counting. The remaining glycogen was redissolved in 1 mL water and 4 mL scintillation fluid and counted for ^14 C. […]

[1] = system: streptozotocin-diabetic rats; experiment: Liver glycogen in insulin-treated streptozotocin diabetic rats, daily s.c. amylin replacement; format: in vivo, rat
Method: There were 68 male Harlan Sprague Dawley rats (mass 301±3 g) in 8 treatment groups. Animals were housed at 22.7±0.8° C. in a 12:12 hour light:dark cycle (experiments being performed during the light cycle) and fed and watered ad libitum (Diet LM-485, Teklad, Madison, Wis.). The rats were sacrificed for harvesting of livers 4 to 5 hours into the light cycle.
Animals were injected with streptozotocin (Sigma Chemical Company, St Louis, Mo.: Sigma 50130) dissolved in water in a dose of 65 mg/kg into the lateral tail vein. […] Maintaining diabetic rats in this metabolic state optimizes survival. Following one week of established diabetes, animals received once daily s.c. injections of amylin vehicle (water for injection) for 5 days given at the time of the insulin injection.
These animals were treated identically to those in group 1 except that the daily subcutaneous injection contained 3 μg (n=5); 10 μg (n=12); 30 μg (n=5); 100 μg (n=5) or 300 μg (n=5) of rat amylin (Bachem lot# WG485^2/). The bioactivity of the peptide used in these experiments was first verified by bioassay, using inhibition of insulin-stimulated radioglucose incorporation into glycogen in the isolated stripped rat soleus muscle. […] The insulin dose in each of the groups of diabetic animals averaged 1.67 U/animal/day. There were no other observable differences in the required management of the different groups.
These animals were derived from the same stock and housed under the same conditions for the same time as those in groups 1-6, but were given no injections. 24 hours after the fifth daily injection of amylin or water (or an equivalent time after admission to the vivarium in the case of group 7 rats), the non-fasted rats were killed by decapitation and the livers immediately removed and frozen in liquid N2, weighed and stored for subsequent determination of glycogen concentration.
Whole livers were powdered while frozen. Approximately 200 mg of powder was further homogenized in 1.0 mL of 0.6M perchloric acid to denature enzymes. 200 μL of the homogenate was neutralized with 0.5 volumes of 1.0M KHCO3 in either of two acetate buffer solutions, one containing 2.0 mL of 200 mM acetate (pH4.8), the other containing the same but with 18.5 U/mL of amyloglucosidase (EC5 3.2.1.3, from Aspergillus nicer, Sigma A3423, Sigma Chemical Company, St Louis, Mo.) added. Following at least 20 minutes incubation at 23° C., the supernatants were assayed for glucose in an analyzer using D-glucose oxidase immobilized enzyme chemistry (Analyzer model 2300-STAT, YSI, Yellow Springs, Ohio). Purified rabbit liver glycogen (Sigma G8876) used as a standard indicated 98±4% recovery of dissolved glycogen and linearity within the range of observed liver glycogen concentrations (r=0.9994). All reagents were of analytical grade or better.
Statistical comparisons were by Student's t-test routines contained in the SYSTAT system (Systat, Evanston, Ill.). All results are reported as means ± standard error of the mean.

liver glucose output = details: rats; Molina et al. 1990, Koopmans et al. 1990; cited from earlier work

## CC(C)C[C@H](NC(=O)[C@H](CC(N)=O)NC(=O)[C@H](CC(N)=O)NC(=O)[C@H](CO)NC(=O)[C@H](CO)NC(=O)[C@H](CCCNC(=N)N)NC(=O)[C@@H](NC(=O)[C@H](CC(C)C)NC(=O)[C@H](Cc1ccccc1)NC(=O)[C@H](CC(N)=O)NC(=O)[C@H](C)NC(=O)[C@H](CC(C)C)NC(=O)[C@H](CCCNC(=N)N)NC(=O)[C@H](CCC(N)=O)NC(=O)[C@@H](NC(=O)[C@H](C)NC(=O)[C@@H]1CSSC[C@H](NC(=O)[C@@H](N)CCCCN)C(=O)N[C@@H](CC(N)=O)C(=O)N[C@@H]([C@@H](C)O)C(=O)N[C@@H](C)C(=O)N[C@@H]([C@@H](C)O)C(=O)N1)[C@@H](C)O)C(C)C)C(=O)NCC(=O)N1CCC[C@H]1C(=O)N[C@H](C(=O)N[C@@H](CC(C)C)C(=O)N1CCC[C@H]1C(=O)N1CCC[C@H]1C(=O)N[C@H](C(=O)N[C@@H](CC(N)=O)C(=O)N[C@H](C(=O)NCC(=O)N[C@@H](CO)C(=O)N[C@@H](CC(N)=O)C(=O)N[C@H](C(=O)N[C@@H](Cc1ccc(O)cc1)C(N)=O)[C@@H](C)O)C(C)C)[C@@H](C)O)C(C)C [rat amylin]
Rat soleus muscle; 4 h
  EC50: 6.2 nM
Rat soleus muscle; [insulin] 0 nM (nominal)
  Amylin dose response: Maximal response, Mean ± SEM: 0.85 ± 0.17 μmol/g wet tissue/hr
Rat soleus muscle; [insulin] 0 nM (nominal), nominal amylin concentrations, read-out: Amylin dose response: EC50, Mean ± log SE (converted)
  EC50: 12.2 ± 0.94 nM
Rat soleus muscle; [insulin] 0.21 nM (nominal)
  Amylin dose response: Maximal response, Mean ± SEM: 1.26 ± 0.18 μmol/g wet tissue/hr
Rat soleus muscle; [insulin] 0.21 nM (nominal), nominal amylin concentrations, read-out: Amylin dose response: EC50, Mean ± log SE (converted)
  EC50: 10.3 ± 0.48 nM
Rat soleus muscle; [insulin] 0.71 nM (nominal)
  Amylin dose response: Maximal response, Mean ± SEM: 2.11 ± 0.18 μmol/g wet tissue/hr
Rat soleus muscle; [insulin] 0.71 nM (nominal), nominal amylin concentrations, read-out: Amylin dose response: EC50, Mean ± log SE (converted)
  EC50: 8.24 ± 0.24 nM
Rat soleus muscle; [insulin] 2.1 nM (nominal)
  Amylin dose response: Maximal response, Mean ± SEM: 2.94 ± 0.18 μmol/g wet tissue/hr
Rat soleus muscle; [insulin] 2.1 nM (nominal), nominal amylin concentrations, read-out: Amylin dose response: EC50, Mean ± log SE (converted)
  EC50: 10.4 ± 0.16 nM
Rat soleus muscle; [insulin] 7.1 nM (nominal)
  Amylin dose response: Maximal response, Mean ± SEM: 3.56 ± 0.19 μmol/g wet tissue/hr
Rat soleus muscle; [insulin] 7.1 nM (nominal), nominal amylin concentrations, read-out: Amylin dose response: EC50, Mean ± log SE (converted)
  EC50: 8.69 ± 0.13 nM
Rat soleus muscle; [insulin] 71 nM (nominal)
  Amylin dose response: Maximal response, Mean ± SEM: 4.07 ± 0.18 μmol/g wet tissue/hr
Rat soleus muscle; [insulin] 71 nM (nominal), nominal amylin concentrations, read-out: Amylin dose response: EC50, Mean ± log SE (converted)
  EC50: 11.93 ± 0.11 nM
Rat soleus muscle; from insulin/amylin dose response matrix
  mode of action on the insulin response in soleus muscle: noncompetitive, functional antagonist to insulin
[1]; amylin 3 μg/day plus insulin
  liver glycogen versus insulin alone: did not measurably increase glycogen levels
[1]; amylin 300 μg/day plus insulin
  liver glycogen restoration towards normal: did not measurably restore liver glycogen towards normal
[1]; amylin 10, 30 and 100 μg per day plus insulin
  liver glycogen concentration versus normal animals: not significantly different from that in normal animals
[1]; amylin 10, 30 and 100 μg/day s.c. for 5 days plus insulin
  liver glycogen versus insulin-only therapy: Significant increases over insulin-only therapy; also recorded: dose-dependent increase in liver glycogen concentration above that in rats replaced with insulin alone
[1]; five consecutive daily subcutaneous injections, insulin-treated STZ diabetic rats
  restoration of liver glycogen: dose-dependently restored liver glycogen to normal levels
Liver glucose output
  effect on insulin-mediated suppression of liver glucose output: reverses insulin-mediated suppression of liver glucose output
